# From patent US8741897B2, “Glucocorticoid mimetics, methods of making them, pharmaceutical compositions and uses thereof” (Boehringer Ingelheim Pharmaceuticals Inc., priority 2003, dated 2014)
# How the values were obtained:
# [1] = system: Human osteosarcoma MG-63 cells; assay: Inhibition of osteocalcin production from osteoblast cell line MG-63; assay type: cell-based; details: Vitamin D 10 nM, 48 hours
# Method: 7. Inhibition of Osteocalcin Production from Osteoblast Cell Line MG-63
# The next day, wells are replaced with fresh media. Cells are treated with Vitamin D (Sigma, Cat. No. D1530) to a final concentration of 10 nM, and with the test compounds in concentrations of 10^−6 M to 10^−9 M, in a total volume of 200 μL per well. Samples are done in duplicates. […] Positive control wells receive Vitamin D only, without compounds, and represent maximum (100%) amount of osteocalcin production. Plates are incubated at 37° C. incubator for 48 hours and supernatants are harvested at the end of incubation. Amounts of osteocalcin in the supernatants are determined by the Glype osteocalcin ELISA kit (Zymed, Cat. No. 99-0054) according to manufacture's protocol. Inhibition of osteocalcin by test compounds is expressed in percentage relative to positive controls. IC50 values of the test compounds are derived by non-lineal curve fitting.
# [2] = molecular target: T1, human glucocorticoid receptor (GR) complex (Homo sapiens, UniProt P04150); assay: Glucocorticoid receptor competitive binding assay (fluorescence polarization, TAMRA-labeled dexamethasone probe); details: compounds of Formula (IA)
# T1 construct: made in house; host or cells: insect expression system (baculovirus lysate)
# T1 sequence (P04150 1-777): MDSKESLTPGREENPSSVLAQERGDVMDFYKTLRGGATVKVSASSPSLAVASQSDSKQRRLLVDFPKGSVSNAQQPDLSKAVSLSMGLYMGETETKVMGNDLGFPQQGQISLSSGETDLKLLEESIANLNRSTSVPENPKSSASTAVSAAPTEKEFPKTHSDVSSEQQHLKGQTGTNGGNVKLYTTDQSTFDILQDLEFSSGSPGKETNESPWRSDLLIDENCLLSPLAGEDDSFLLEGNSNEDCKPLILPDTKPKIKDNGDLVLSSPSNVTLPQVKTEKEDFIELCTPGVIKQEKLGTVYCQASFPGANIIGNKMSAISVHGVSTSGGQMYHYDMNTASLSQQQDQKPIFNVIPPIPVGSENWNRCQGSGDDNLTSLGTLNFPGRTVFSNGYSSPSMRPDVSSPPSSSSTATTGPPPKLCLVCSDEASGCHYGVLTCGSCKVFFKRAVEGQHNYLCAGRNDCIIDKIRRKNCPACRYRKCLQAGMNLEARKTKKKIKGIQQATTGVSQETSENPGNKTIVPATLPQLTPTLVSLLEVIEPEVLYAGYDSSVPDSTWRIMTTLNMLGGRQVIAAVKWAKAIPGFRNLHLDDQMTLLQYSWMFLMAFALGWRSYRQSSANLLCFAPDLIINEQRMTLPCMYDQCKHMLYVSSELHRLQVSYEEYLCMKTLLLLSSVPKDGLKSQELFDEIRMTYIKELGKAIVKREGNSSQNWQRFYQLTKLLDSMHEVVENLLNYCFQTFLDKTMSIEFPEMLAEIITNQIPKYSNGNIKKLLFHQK
# Summary of the method: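 Fluorescence-polarization competition against 15 nM TAMRA-dexamethasone (stock added to the mix) for human GR complex from baculovirus lysate diluted 1:170. Buffer: 10 mM TES, 50 mM KCl, 20 mM Na2MoO4, 1.5 mM EDTA, 0.04% CHAPS, 10% glycerol, 1 mM DTT, pH 7.4. IC50 from 4-parameter logistic fit.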
# [3] = system: glucocorticoid receptor function; assay: one or more of the above assays (GR binding and glucocorticoid receptor cell assays: aromatase, IL-6, TAT, MMTV-Luc, IL-8, ICAM-Luc); assay type: cell-based; details: assay not specified per compound
SMILES,inhibit the vitamin D stimulated production of osteocalcin [1],activity in the GR binding assay [2],activity as agonists of the glucocorticoid receptor function in one or more of the above assays [3]
"Cc1ccc(F)cc1C(C)(C)CC(O)(Cc1cc2cnncc2[nH]1)C(F)(F)F (stereo not shown) [1,1,1-Trifluoro-4-(5-fluoro-2-methylphenyl)-4-methyl-2-(1H-pyrrolo[2,3-d]pyridazin-2-ylmethyl)pentan-2-ol]",inhibit,potent activity,potent agonists
"Cc1cc(C#N)cc2[nH]c(CC(O)(CC(C)(C)c3cc(S(C)(=O)=O)cc4c3OCC4)C(F)(F)F)cc12 (stereo not shown) [2-[2-Hydroxy-4-(5-methanesulfonyl-2,3-dihydrobenzofuran-7-yl)-4-methyl-2-trifluoromethylpentyl]-4-methyl-1H-indole-6-carbonitrile]",inhibit,potent activity,potent agonists
"CC(C)(CC(O)(Cc1cc2cc(C(N)=O)ccc2[nH]1)C(F)(F)F)c1cc(Br)cc2c1OCC2 (stereo not shown) [2-[4-(5-Bromo-2,3-dihydrobenzofuran-7-yl)-2-hydroxy-4-methyl-2-trifluoromethylpentyl]-1H-indole-5-carboxylic acid amide]",inhibit,potent activity,potent agonists
"CC(C)(CC(O)(Cc1cc2cc(C(=O)NCC#N)ccc2[nH]1)C(F)(F)F)c1cc(Br)cc2c1OCC2 (stereo not shown) [2-[4-(5-Bromo-2,3-dihydrobenzofuran-7-yl)-2-hydroxy-4-methyl-2-trifluoromethylpentyl]-1H-indole-5-carboxylic acid cyanomethylamide]",inhibit,potent activity,potent agonists
"COc1ccc(F)cc1C(C)(C)CC(O)(Cc1cc2c(C)nc(C#N)cc2[nH]1)C(F)(F)F (stereo not shown) [2-[4-(5-Fluoro-2-methoxyphenyl)-2-hydroxy-4-methyl-2-trifluoromethylpentyl]-4-methyl-1H-pyrrolo[3,2-c]pyridine-6-carbonitrile]",inhibit,potent activity,potent agonists
"COc1cc2cc(CC(O)(CC(C)(C)c3cc(Cl)cc4c3OCC4)C(F)(F)F)[nH]c2cn1 (stereo not shown) [4-(5-Chloro-2,3-dihydrobenzofuran-7-yl)-1,1,1-trifluoro-2-(5-methoxy-1H-pyrrolo[2,3-c]pyridin-2-ylmethyl)-4-methylpentan-2-ol]",inhibit,potent activity,potent agonists
"CC(C)(CC(O)(Cc1cc2cc(-c3ccccc3)ncc2[nH]1)C(F)(F)F)c1cc(Cl)cc2c1OCC2 (stereo not shown) [4-(5-Chloro-2,3-dihydrobenzofuran-7-yl)-1,1,1-trifluoro-4-methyl-2-(5-phenyl-1H-pyrrolo[2,3-c]pyridin-2-ylmethyl)pentan-2-ol]",inhibit,,potent agonists
"Cc1cc2[nH]c(CC(O)(CC(C)(C)c3cc(Cl)cc4c3OCC4)C(F)(F)F)cc2c(C)n1 (stereo not shown) [4-(5-Chloro-2,3-dihydrobenzofuran-7-yl)-2-(4,6-dimethyl-1H-pyrrolo[3,2-c]pyridin-2-ylmethyl)-1,1,1-trifluoro-4-methylpentan-2-ol]",inhibit,potent activity,potent agonists
"CCN(C)c1cc2cc(CC(O)(CC(C)(C)c3cc(Cl)cc4c3OCC4)C(F)(F)F)[nH]c2cn1 (stereo not shown) [4-(5-Chloro-2,3-dihydrobenzofuran-7-yl)-2-[5-(ethylmethylamino)-1H-pyrrolo[2,3-c]pyridin-2-ylmethyl]-1,1,1-trifluoro-4-methylpentan-2-ol]",inhibit,,potent agonists
"CC(C)(CC(O)(Cc1cc2cc(C(=O)N3CCCC3)ccc2[nH]1)C(F)(F)F)c1cc(Br)cc2c1OCC2 (stereo not shown) [{2-[4-(5-Bromo-2,3-dihydrobenzofuran-7-yl)-2-hydroxy-4-methyl-2-trifluoromethylpentyl]-1H-indol-5-yl}pyrrolidin-1-ylmethanone]",inhibit,potent activity,potent agonists
